The values that follow come from US4851440A, “Leukotriene antagonists, processes for the preparation thereof, the use thereof for the treatment of diseases, and precursors” (Hoechst Aktiengesellschaft, priority 1987, dated 1989).

The structures appear in SMILES notation. In brackets after ≈: the same amount, converted by molar mass.

Common to all, as to assay type: cell-based
One assay has as its system LTC4. The assay can be described thus: Inhibition of the LTC4-induced contraction of strips of guinea pig lung. The note with it: Cavia porcellus; LTC4 3 ng/ml of bath liquid; lung strips pretreated with indomethacin (10^-6 g/ml); substance added at maximum contraction plateau; 37° C.; read-out: IC50 versus LTC4. On the procedure: (§1) The leukotriene-antagonistic action of the substances of the general formula I according to the invention is determined by the inhibition of the leukotriene-induced contraction of strips of guinea pig lung. The method which is used is a modification of the tests described by Foreman, Shelly and Weber (Arch. Int. Pharmacodyn. 278, 193-206 (1985)).
(§2) Guinea pigs are sacrificed by an overdose of ether. The thoracic cavity is opened; the lungs are removed and cut into strips 5 cm long, which are stored in physiological saline. For the measurement, the strips of lung are placed in an organ bath filled with Ringer's solution which is equilibrated at 37° C. and through which carbogen (O2 /CO2 95:5 parts by volume) is passed. The strips are left to equilibrate under a load of 0.5-1 g for 30-60 minutes. The strips of lung are pretreated with indomethacin (10^-6 g/ml of bath liquid) before the test starts.
(§3) The contraction is induced by adding LTC4, LTD4 or LTE4 in a concentration of 3 ng/ml of bath liquid. The test substances are administered therapeutically into the bath, after the maximum contraction plateau has been reached, in several concentrations and at time intervals of 10 minutes. 6-12 strips of lung are used for each concentration of the test substances.
(§4) The concentrations of the test substances at which the contraction is reduced by 50% (IC50) are indicated in μg/ml.

The next assay has as its system LTE4. The assay can be described thus: Inhibition of the LTE4-induced contraction of strips of guinea pig lung. The note with it: Cavia porcellus; LTE4 3 ng/ml of bath liquid; lung strips pretreated with indomethacin (10^-6 g/ml); substance added at maximum contraction plateau; 37° C.; read-out: IC50 versus LTE4. The procedure: as §1, §2, §3, §4
The next assay deals with LTD4. Nature of the assay: Inhibition of the LTD4-induced contraction of strips of guinea pig lung. To be noted: Cavia porcellus; LTD4 3 ng/ml of bath liquid; lung strips pretreated with indomethacin (10^-6 g/ml); substance added at maximum contraction plateau; 37° C.; read-out: IC50 versus LTD4. The procedure: as §1, §2, §3, §4

For `COC(=O)COC[C@@H](O)[C@@H](Sc1cccc(OC)c1)c1ccccc1` (racemic) [Compound A, Methyl (5RS,6SR)-5-hydroxy-6-(3-methoxyphenylthio)-6-phenyl-3-oxahexanoate], the IC50 with LTC4 was determined as 0.6 µg/mL (≈ 1.66 µM); in the assay with LTE4, 1 µg/mL (≈ 2.76 µM); in the assay with LTD4, 0.3 µg/mL (≈ 0.828 µM).
On to `COC(=O)CSC[C@@H](O)[C@@H](Sc1cccc(OC)c1)c1ccccc1` (racemic) [Compound B, Methyl (5RS,6SR)-5-hydroxy-6-(3-methoxyphenylthio)-6-phenyl-3-thiahexanoate], for which the IC50 in the assay with LTC4 was 0.6 to 1 µg/mL (≈ 1.59 to 2.64 µM); in the assay with LTE4, 1 µg/mL (≈ 2.64 µM); in the assay on LTD4, 0.6 µg/mL (≈ 1.59 µM).
For `CCCS[C@@H](c1ccccc1)[C@H](O)COCC(=O)OC` (racemic) [Compound D, Methyl (5RS,6SR)-5-hydroxy-6-phenyl-3-oxa-7-thiadecanoate], the IC50 in the assay with LTC4 was over 10 µg/mL; with LTE4, over 10 µg/mL; in the assay on LTD4, 0.5 µg/mL (≈ 1.68 µM).
As to `CCCS[C@@H](c1ccccc1)[C@H](O)CSCC(=O)OC` (racemic) [Compound E, Methyl (5RS,6SR)-5-hydroxy-6-phenyl-3,7-dithiadecanoate], the half-inhibitory concentration (IC50) was 6 µg/mL (≈ 19.1 µM) in the assay with LTC4, 6 to 10 µg/mL (≈ 19.1 to 31.8 µM) with LTE4 and 0.6 to 1 µg/mL (≈ 1.91 to 3.18 µM) with LTD4.
Turning to `COC(=O)CSC[C@H](O)[C@H](Sc1cccc(OC)c1)c1ccccc1` [Compound C, Methyl (5 S,6 R)(-)-5-hydroxy-6-(3-methoxyphenylthio)-6-phenyl-3-thiahexanoate], the IC50 in the assay on LTC4 is 0.3 to 0.6 µg/mL (≈ 0.793 to 1.59 µM); in the assay on LTE4, 0.3 to 0.6 µg/mL (≈ 0.793 to 1.59 µM); with LTD4, 0.1 µg/mL (≈ 0.264 µM).

Broadly, the IC50 is the midpoint of a concentration-inhibition curve.
